In PubChem BioAssay AID489024 (Sanford-Burnham Center for Chemical Genomics, 2010):
The source made the active and inactive calls.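 The calls were made as follows: active = compounds whose mean EC50, the dose giving half the maximal reporter activation, is at or below a set limit; inactive = the rest.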

target: CHO-CHOP luciferase reporter, UPR activation, luminescence; assay: activators of PERK-eIF2a-CHOP UPR arm, confirmation, CHO-CHOP cells, luciferase luminescence (AID 489024);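 also: compounds added alone to reporter cells with no tunicamycin stress co-treatment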

**Q.** Which EC50 does the source give for `O=C(/C=C/c1ccc(O)c(O)c1)OCCc1ccccc1` here?
**A.** 0.89 µM

**Q.** With `C/C(=N\NC(=O)c1cccc(Br)c1)c1ccccn1` as the compound, how does the EC50 read?
**A.** 2.36 µM

**Q.** Which EC50 does the source give for `COc1ccccc1NC(=O)c1cnc(SCC(=O)NCC2CCCO2)n(C)c1=O` (stereo not given) here?
**A.** 14.4 µM

**Q.** `C/C(=N\NC(=O)c1cc2ccccc2cc1O)c1ccccn1` was tested. Which EC50 did it give?
**A.** 3.71 µM

**Q.** `Cc1cc(C)c2c(c1)/C(=c1/sc3n(c1=O)CN(c1ccccc1)CN=3)C(=O)N2` was tested. Which EC50 did it give?
**A.** 11.6 µM

**Q.** Which EC50 does the source give for `O=c1[nH]c(=S)n(C2CC2)c(O)c1C=Nc1cccc(C(F)(F)F)c1` here?
**A.** > 80 µM (inactive)

**Q.** With `Oc1c(C(Nc2ccccn2)c2ccccn2)ccc2cccnc12` (stereo not given) as the compound, how does the EC50 read?
**A.** 12.3 µM

**Q.** Which EC50 does the source give for `COc1ccc(NC(=O)c2sc3nc(N4CCOCC4)c4c(c3c2N)CC(C)(C)OC4)c(OC)c1` here?
**A.** > 80 µM (inactive)

**Q.** Which EC50 does the source give for `Cn1c(SCC(=O)NCC2CCCO2)ncc(C(=O)Nc2ccc(Cl)cc2)c1=O` (stereo not given) here?
**A.** 16 µM

**Q.** For `COc1cccc2sc(N3CCN(c4nc5ccccc5s4)CC3)nc12`, which EC50 is on record?
**A.** 13.8 µM

**Q.** Which EC50 does the source give for `COc1ccccc1/C=N\Nc1cc(C)nc(-n2nc(C)cc2C)n1` here?
**A.** 13.9 µM

**Q.** For `COc1ccc(C2OC34CCCCC3C(C#N)(C#N)C2(C#N)C(=N)O4)cc1` (stereo not given), which EC50 is on record?
**A.** > 80 µM (inactive)

**Q.** For `COc1cc(NS(=O)(=O)c2ccc3ccccc3c2)c2ncccc2c1`, which EC50 is on record?
**A.** 7.5 µM

**Q.** How did the EC50 turn out when `COC(=O)c1c(NC(=O)CC2Nc3ccccc3NC2=O)sc(C)c1C` (stereo not given) was run?
**A.** inactive

**Q.** Which EC50 does the source give for `CCSC1(SCC)N=C(N)C2(C#N)C(c3ccc(OC)c(OC)c3OC)C12C#N` (stereo not given) here?
**A.** 14.7 µM

**Q.** `CCOC(=O)c1sc(N(Cc2ccccc2)C(=O)CCl)nc1C` was tested. Which EC50 did it give?
**A.** 7.96 µM

**Q.** `Cn1nnnc1Sc1ncnc2scc(-c3cc4ccccc4o3)c12` was tested. Which EC50 did it give?
**A.** 9.26 µM

**Q.** How did the EC50 turn out when `CCOc1ccc(N2C(=O)/C(=C\c3cccs3)C(=O)NC2=S)cc1` was run?
**A.** 8.68 µM

**Q.** How did the EC50 turn out when `CC(C)c1ccc(NC(=O)/C(C#N)=C/c2ccncc2)cc1` was run?
**A.** 13.6 µM

**Q.** With `CCC(=O)Nc1ccc(C(=O)Cn2ncc(Cl)c(Cl)c2=O)cc1` as the compound, how does the EC50 read?
**A.** 13.7 µM

**Q.** How did the EC50 turn out when `Cc1ccc(-c2nc(SCC(=O)Nc3cc(C)on3)c3c(=O)n(C)c(=O)n(C)c3n2)cc1` was run?
**A.** > 80 µM (inactive)

**Q.** `CC(C)(C)C1=CC(=O)C(=O)C(C(C)(C)C)=C1` was tested. Which EC50 did it give?
**A.** 7.59 µM

**Q.** How did the EC50 turn out when `CCCCCCCCCn1c2c(c(=N)c3c1CCC3)CCCC2` was run?
**A.** 11.3 µM

**Q.** For `O=[N+]([O-])/C=C\c1ccc(N2CCOCC2)cc1`, which EC50 is on record?
**A.** 17.5 µM

**Q.** How did the EC50 turn out when `Oc1ccc(/C=N/Nc2ccc(C(F)(F)F)cn2)cc1O` was run?
**A.** 5.89 µM

**Q.** With `CCNc1ccccc1CP(=O)(c1ccccc1)c1ccccc1O` (stereo not given) as the compound, how does the EC50 read?
**A.** 15 µM

**Q.** How did the EC50 turn out when `O=C(N/N=C/c1ccccn1)c1cc(-c2ccc(Br)cc2)nc2ccccc12` was run?
**A.** 2.4 µM

**Q.** For `CC1=C(CC/C(C)=N/NC(N)=S)C(C)(C)CCC1`, which EC50 is on record?
**A.** 19.8 µM

**Q.** Which EC50 does the source give for `COC(=O)c1cc(=O)n(Cc2ccco2)c(=Nc2ccc(F)c(Cl)c2)s1` here?
**A.** 16.8 µM

**Q.** With `Cc1cc(C(=O)CCl)c(C)n1Cc1ccco1` as the compound, how does the EC50 read?
**A.** 7.35 µM

**Q.** How did the EC50 turn out when `O=C1NC(=S)NC(=O)C1=Cc1ccc(Br)s1` was run?
**A.** > 80 µM (inactive)

**Q.** How did the EC50 turn out when `N=c1c(-c2nc3ccccc3[nH]2)cc(C(=O)c2ccco2)nn1-c1ccccc1` was run?
**A.** 15.2 µM

**Q.** How did the EC50 turn out when `CCOC(=O)N1CCN(Cc2ccc(O)c3ncccc23)CC1` was run?
**A.** 16.4 µM

**Q.** `Cc1nc([N+](=O)[O-])c(Br)n1CC(=O)c1ccc(Cl)cc1` was tested. Which EC50 did it give?
**A.** > 80 µM (inactive)

**Q.** With `Cc1ccc(N2C(=O)NC(=O)/C(=C/C=C/c3ccco3)C2=O)cc1` as the compound, how does the EC50 read?
**A.** 11.5 µM

**Q.** Which EC50 does the source give for `Cc1ccc(CN2CCN(/N=C/c3ccc(O)c(O)c3)CC2)cc1` here?
**A.** 3.64 µM

**Q.** `O=C(Nc1ccc(NC(=O)c2sc3ccccc3c2Cl)cc1Cl)c1ccco1` was tested. Which EC50 did it give?
**A.** inactive

**Q.** How did the EC50 turn out when `CCOC(=O)c1c(C)oc2c1c(C(c1cccnc1)N1CCOCC1)c(O)c1ccccc12` (stereo not given) was run?
**A.** 16.8 µM

**Q.** Which EC50 does the source give for `Cc1nc(NC(=O)/C=C/c2ccccc2)n[nH]1` here?
**A.** > 80 µM (inactive)

**Q.** With `COC(=O)C(=Cc1ccc(OCc2ccc([N+](=O)[O-])cc2)c(OC)c1)C(=O)OC` as the compound, how does the EC50 read?
**A.** 5.43 µM

**Q.** With `Cc1ccc(NC(=O)Cn2ncc(Cl)c(Cl)c2=O)cc1S(=O)(=O)N1CCCCC1` as the compound, how does the EC50 read?
**A.** 6.45 µM

**Q.** Which EC50 does the source give for `CCc1ccc(N2C(=O)NC(=O)/C(=C\C=C\c3ccco3)C2=O)cc1` here?
**A.** 7.33 µM

**Q.** `Cc1ccc(C(=O)NC(C#N)=C(Cl)Cl)cc1` was tested. Which EC50 did it give?
**A.** > 80 µM (inactive)

**Q.** With `Cc1cc(C)cc(N2C(=O)NC(=O)/C(=C\c3cccn3-c3ccccc3)C2=O)c1` as the compound, how does the EC50 read?
**A.** 13.9 µM

**Q.** How did the EC50 turn out when `Cn1nc([N+](=O)[O-])c(C(C#N)c2ccccn2)c(Cl)c1=O` (stereo not given) was run?
**A.** > 80 µM (inactive)

**Q.** Which EC50 does the source give for `Cc1ccc(C[n+]2c(-c3ccc(C)cc3)cc(-c3ccc(C)cc3)cc2-c2ccc(C)cc2)cc1` here?
**A.** 4.67 µM

**Q.** Which EC50 does the source give for `O=C1Nc2ccccc2/C1=C/C(=O)c1cccs1` here?
**A.** 14.4 µM

**Q.** How did the EC50 turn out when `CC1=NN(c2cccc(C(=O)O)c2)C(=O)/C1=C\C=C/c1ccccc1` was run?
**A.** 11.7 µM

**Q.** Which EC50 does the source give for `COc1cc(/C=C(/C(=O)c2cccs2)c2nc3ccccc3[nH]2)cc(OC)c1O` here?
**A.** 9.71 µM

**Q.** How did the EC50 turn out when `COc1ccc(-n2c(C)cc(C(=O)CCl)c2C)cc1` was run?
**A.** 7.13 µM

**Q.** For `COc1ccc(/C=C/C(=O)c2ccc([N+](=O)[O-])o2)cc1`, which EC50 is on record?
**A.** 6.65 µM

**Q.** For `O=C(CN1CCN(c2ccccc2F)CC1)c1ccc(O)c(O)c1`, which EC50 is on record?
**A.** inactive

**Q.** How did the EC50 turn out when `Cc1ccc2[nH]cc(C(=O)CCl)c2c1` was run?
**A.** 7.64 µM

**Q.** `O=C1NN(c2cccc(Br)c2)C(=O)/C1=C/c1cccs1` was tested. Which EC50 did it give?
**A.** inactive

**Q.** With `CC1=NOC(=O)/C1=C\c1ccc(-c2ccc(Cl)cc2Cl)o1` as the compound, how does the EC50 read?
**A.** 13.5 µM
